Patent US7868047B2, “Anti-inflammatory and psoriasis treatment and protein kinase inhibition by hydroxy stilbenes and novel stilbene derivatives and analogues” (Welichem Biotech Inc., priority 1999, dated 2011)

Tests used:
[1] = test system: DSS-induced IBD; assay: DSS (2%) IBD mouse model, preventive experiment; format: in vivo; settings: 500 mg/kg/day oral with 2% DSS, day 7
Protocol: To assess the in vivo efficacy for preventive and therapeutic activities of these compounds on IBD, two experiments were designed and tested using the dextran sulfate sodium (DSS) experimental mouse model for human IBD. For the preventive experiment, compounds 9A and 39B were simultaneously administrated orally with 2% DSS at the dose of 500 mg/kg/day. Vehicle alone and glucocorticoid (dexamethasone 20 mg/kg/day) were used as controls. At day 7, mice were sacrificed, examined for stool appearance, diarrhea and colon macroscopic damage including ulceration, inflammation and adhesion. Colon samples were also taken and fixed in 10% formalin for histological assessment of architecture, ulceration, inflammation and serosal damage.

[2] = test system: acute colon inflammation induced by 5% DSS; assay: DSS (5%) acute colon inflammation mouse model, therapeutic experiment; format: in vivo; settings: for Bleeding score / Diarrheal score: day seven, mean ± SEM, n = 9, 1 = normal; for Bleeding score: 2 = bloody stool, 4 = gross bleeding; for Diarrheal score: 2 = loose stools, 4 = diarrhea
Excerpt: To assess the in vivo efficacy for preventive and therapeutic activities of these compounds on IBD, two experiments were designed and tested using the dextran sulfate sodium (DSS) experimental mouse model for human IBD.
For the therapeutic experiment a further experiment was done to test different doses of 9A on severe, acute intestinal inflammation in mice induced by a high dose of DSS (5%). In this experiment, drug treatment started from day 3 post DSS induction when disease symptom was established. 9A (200 mg/kg or 100 mg/kg) was administered through oral […] once daily and a commercial drug, sulfasalazine (SASP, 100 mg/kg/day) was used as positive control. Experiment was terminated at day 7 and the efficacy was assessed.

[3] = test system: psoriasis; assay: 1% cream on volunteers with psoriasis; format: in vivo, human; settings: topical, once per day, vs control cream
Protocol: The biological activity of the compounds of this invention can be determined by measurement of the effect of the test compound in vivo because there is no animal model suitable for the diseases. The compounds were tested on volunteers. In these tests, representative compound of this invention, i.e., 3,5-dihydroxy-4-isopropylstilbene is active in reducing or eliminating symptoms of psoriasis and eczema.
A 1% cream of 3,5-dihydroxy-4-isopropylstilbene was prepared for tests on volunteers. Three volunteers, each with a long psoriasis history, were recruited for the tests. Neither of them was on any medication a month before the initiation of the test.
Volunteer 1, person, with scalp psoriasis for more than 15 years. They had used various conventional drugs and treatments, include, steroids, phototherapy and other medicine during the course of their illness. All of these treatments had no or very limited effect on this psoriasis.
Volunteer 2, person, with plaques on their back. They had used hydrocortisone before and stopped using it because of side effects.
The volunteers were treated once per day by applying the creams once per day on top of the affected area with the basic cream as the control (except for volunteer 3). […] The cream of the invention contained 1% 3,5-dihydroxy-4-isopropylstilbene. The control cream was identical except that it contained no 3,5-dihydroxy-4-isopropylstilbene. […]

[4] = test system: TPA-induced ear edema; assay: TPA-induced ear edema model; format: in vivo, mouse; settings: 0.3% single topical, TPA 0.01%, ear thickness 6 hours after TPA
Protocol: Experiment: Three representative compounds, 5-(2-phenylethenyl)-2-1-propyl-1,3-benzenediol, as previously reported, a closely related stilbene derivative (WO 0142231) and compound 39B, a novel compound of the current invention, were assayed against the edema on female mice (Balb/c) aged 10-12 weeks, using 0.01% Calcitriol (a commercial standard) as a positive control. Phorbol-12-myristate-13-acetate (TPA) was used as the edema inducer. TPA and the test compounds were all dissolved in 100% ethanol and 20 μl applied on the right ear of the mouse with six mice per group. The TPA concentration used was 0.01% (w/v). Ear thickness was measured 6 hours after TPA treatment to determine if edema was decreased. In each experiment replicated groups of TPA treated mice were treated with either 5-(2-phenylethenyl)-2-1-propyl-1,3-benzenediol, Calcitriol, compound 39B or only ethanol, and the level of inhibition was obtained by measuring the thickness of the ear and expressing the difference in thickness of the treated ear from that of the ethanol treated ear, as a percentage.

[5] = test system: eczema; assay: 1% cream on volunteer with eczema; format: in vivo, human; settings: topical, right side, control triamcinolone acetonide 0.5% left side

CC(C)c1c(O)cc(/C=C/c2ccccc2)cc1O [Compound 9A, 3,5-Dihydroxy-4-isopropyl-trans-stilbene]
macroscopic and microscopic diseases scores [1]: significantly decreased
Bleeding score ([2]; 100 mg/kg oral daily): 3.3 ± 0.37
Diarrheal score ([2]; 100 mg/kg oral daily): 2.0 ± 0.73
Bleeding score ([2]; 200 mg/kg oral daily): 3.2 ± 0.49
Diarrheal score ([2]; 200 mg/kg oral daily): 2.4 ± 0.45
survival rate vs control treatment ([2]; 5% DSS, treatment from day 3): significantly higher survival rate
survival rate ([2]; daily oral treatment from day 3 post 5% DSS, vehicle control 33%): 67%
effect on psoriasis, volunteer 1 (scalp psoriasis) [3]: completely clearance in 7 days
effect on psoriasis, volunteer 2 (plaques on back) [3]: significant improvement of the psoriasis
% edema inhibition [4]: 8%
effect on eczema, volunteer 3 [5]: disease symptoms completely disappeared by week 2
